The results in this text go back to PubChem BioAssay AID2483 (Sanford-Burnham Center for Chemical Genomics, 2010).

The source made the active and inactive calls. No rule for the calls is given here.

The subject of the test is TNFa-induced NF-kB reporter inhibition, human cells. The test can be described thus: TNFa-triggered NF-kB activation inhibitors, SAR follow-up, cell-based, set 2 (AID 2483).
For orientation: IC50 means the concentration needed to halve the response being measured. On to `COCCn1c(SCCCc2ccccc2)nc2c1c(=O)[nH]c(=O)n2C`, for which the IC50 is > 20 µM (inactive).

For `CCCn1c(SCCc2ccccc2)nc2c1c(=O)[nH]c(=O)n2C`, the IC50 was > 20 µM (inactive).

With `CC(C)Sc1nc2c(c(=O)[nH]c(=O)n2C)n1Cc1ccccc1`, the IC50 is > 20 µM (inactive).

As to `C/C=C/Cn1c(SCc2ccc(Cl)cc2)nc2c1c(=O)[nH]c(=O)n2C`, the IC50 is > 20 µM (inactive).

On to `CCCCn1c(CN2CCN(c3cccc(Cl)c3)CC2)nc2c1c(=O)n(C)c(=O)n2C`, for which the IC50 was 5.69 µM.

With `CCCCn1c(SCC(=O)c2ccccc2)nc2c1c(=O)[nH]c(=O)n2C`, the IC50 is > 20 µM (inactive).

On to `O=C(Nc1nc2ccccc2n1Cc1ccc(Cl)cc1)c1ccco1`, for which the IC50 is > 20 µM (inactive).

As to `CCCCCn1c(SCCc2ccccc2)nc2c1c(=O)[nH]c(=O)n2C`, the IC50 is > 20 µM (inactive).

As for `Cc1ccc(S(=O)(=O)n2c(N)nc3ccccc32)cc1`, the IC50 is > 20 µM (inactive).

In the case of `CCCn1c(SCC(=O)Nc2nc3c(s2)CCCC3)nc2c1c(=O)n(C)c(=O)n2C`, the IC50 is 3.31 µM.

For `CCC(=O)Nc1nc2ccccc2n1Cc1ccccc1Cl`, the concentration for half-maximal inhibition (IC50) is 16.9 µM.

Turning to `C/C=C/Cn1c(SCc2ccccc2)nc2c1c(=O)[nH]c(=O)n2C`, the IC50 was > 20 µM (inactive).

Regarding `C=CCn1c(SCCCc2ccccc2)nc2c1c(=O)[nH]c(=O)n2C`, the IC50 was 16.8 µM.

For `C/C(Cl)=C\Cn1c(NCCc2ccccc2)nc2c1c(=O)n(C)c(=O)n2C`, the IC50 was 5.21 µM.

On to `CC(C)n1c(SCCCc2ccccc2)nc2c1c(=O)[nH]c(=O)n2C`, for which the IC50 is > 20 µM (inactive).

`C/C=C/Cn1c(SCCCc2ccccc2)nc2c1c(=O)[nH]c(=O)n2C`: the IC50 was 8.49 µM.

Take `CCCCn1c(SCC(=O)Nc2nnc(CC)s2)nc2c1c(=O)n(C)c(=O)n2C`: the 50% inhibitory concentration (IC50) is 13.1 µM.

Regarding `Cn1c(=O)[nH]c(=O)c2c1nc([N+](=O)[O-])n2Cc1ccccc1`, the half-inhibitory concentration (IC50) is 1.32 µM.
